Source: paper PMC7544826 (Communications Biology, 2020)
Entries after “also recorded” stand apart in the source; their conditions may differ.

Assays:
Notum [1] = target: T1, Notum (Homo sapiens, UniProt Q6P988, C330S); test: SPR equilibrium binding to biotinylated Notum on streptavidin chip; parameters: The human Notum enzyme core comprising amino acids S81–T451 with a C330S mutation; made in house; dialyzed conditioned medium used without purification; details: for SPR Response: Fig 2b
T1 sequence (Q6P988 81-451 C330S): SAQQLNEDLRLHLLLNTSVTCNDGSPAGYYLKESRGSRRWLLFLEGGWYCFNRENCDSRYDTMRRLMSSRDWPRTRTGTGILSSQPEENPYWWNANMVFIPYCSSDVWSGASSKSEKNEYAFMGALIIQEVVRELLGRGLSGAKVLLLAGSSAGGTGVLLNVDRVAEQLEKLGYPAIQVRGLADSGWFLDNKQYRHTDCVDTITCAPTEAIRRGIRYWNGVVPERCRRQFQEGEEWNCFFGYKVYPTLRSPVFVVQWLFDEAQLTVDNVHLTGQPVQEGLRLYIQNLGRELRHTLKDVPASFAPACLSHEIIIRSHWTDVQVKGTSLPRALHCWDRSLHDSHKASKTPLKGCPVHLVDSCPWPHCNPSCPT
Method: The human Notum core sequence was cloned in a pHL-Avi3 vector[49] and co-transfected with the pDisplay_BirA-ER plasmid[50] into HEK293T cells with the media supplemented with 20 µM biotin. This procedure allows in vivo biotinylation to occur, and the dialyzed conditioned medium was directly used for SA sensor chip immobilization without protein purification. […] Approximately 2500 resonance units (RU) of the biotinylated Notum was coupled onto the chip. […] The response was plotted versus the concentration of the analytes and fitted by nonlinear regression to a one-site saturation binding model (GraphPad Prism 8).

Notum [2] = target: T1, Notum; test: Notum activity assay with OPTS as substrate; type: biochemical; parameters: The human Notum enzyme core comprising amino acids S81–T451 with a C330S mutation; made in house; dialyzed conditioned medium used without purification; details: result in words
Method: OPTS is a common lipase substrate with an octanoyl lipid linked to a fluorescent moiety. It is not a natural Notum substrate; however, it can be used to quantify the enzymatic activity of purified Notum protein[23],[25],[28]. […] The fluorescent lipase substrate OPTS was dissolved in water at a concentration of 20 µM. […] The inhibition curves were fitted with a one-site model with GraphPad Prism 8 software.

Notum [3] = target: T1, Notum; test: Thermal shift assay (SYPRO Orange) of Notum; details: compound 500 µM; for Thermoflour melting curve fluorescence of Notum: Fig 2c
Method: Reference wells, i.e. solutions without compounds were used to compare the melting temperature (Tm). The experiments were performed in triplicate.

## Cn1c(=O)c2[nH]cnc2n(C)c1=O [theophylline, 1,3-dimethylxanthine]
Notum [1]; theophylline conc. 8.138e-6 (unit not given)
  SPR Response: 6
Notum [1]; theophylline conc. 1.628e-5 (unit not given)
  SPR Response: 5.14
Notum [1]; theophylline conc. 3.255e-5 (unit not given)
  SPR Response: 5.26
Notum [1]; theophylline conc. 6.51e-5 (unit not given)
  SPR Response: 4.57
Notum [1]; theophylline conc. 0.0001302 (unit not given)
  SPR Response: 4.5
Notum [1]; theophylline conc. 0.0002604 (unit not given)
  SPR Response: 4.84
Notum [1]; theophylline conc. 0.0005208 (unit not given)
  SPR Response: 5.18
Notum [1]; theophylline conc. 0.001042 (unit not given)
  SPR Response: 6.64
Notum [1]; theophylline conc. 0.002083 (unit not given)
  SPR Response: 9.15
Notum [1]; theophylline conc. 0.004167 (unit not given)
  SPR Response: 13.17
Notum [1]; theophylline conc. 0.008333 (unit not given)
  SPR Response: 19.59
Notum [1]; theophylline conc. 0.01667 (unit not given)
  SPR Response: 29.6
Notum [1]; result in words
  Binding to Notum (SPR response): weak binding; also recorded: very weak binding
Notum [2]
  Notum inhibitory effect in OPTS enzyme assay: not sufficient to inhibit Notum enzyme activity; also recorded: could not detect obvious Notum inhibitory effects
Notum [3]; Temperature 24.5
  Thermoflour melting curve fluorescence of Notum: 897.128
Notum [3]; Temperature 25.5
  Thermoflour melting curve fluorescence of Notum: 765.384
Notum [3]; Temperature 26.5
  Thermoflour melting curve fluorescence of Notum: 637.209
Notum [3]; Temperature 27.5
  Thermoflour melting curve fluorescence of Notum: 518.408
Notum [3]; Temperature 28.5
  Thermoflour melting curve fluorescence of Notum: 414.177
Notum [3]; Temperature 29.5
  Thermoflour melting curve fluorescence of Notum: 331.765
Notum [3]; Temperature 30.5
  Thermoflour melting curve fluorescence of Notum: 250.774
Notum [3]; Temperature 31.5
  Thermoflour melting curve fluorescence of Notum: 158.442
Notum [3]; Temperature 32.5
  Thermoflour melting curve fluorescence of Notum: 68.441
Notum [3]; Temperature 33.5
  Thermoflour melting curve fluorescence of Notum: -19.5239
Notum [3]; Temperature 34.5
  Thermoflour melting curve fluorescence of Notum: -111.255
Notum [3]; Temperature 35.5
  Thermoflour melting curve fluorescence of Notum: -209.389
Notum [3]; Temperature 36.5
  Thermoflour melting curve fluorescence of Notum: -312.731
Notum [3]; Temperature 37.5
  Thermoflour melting curve fluorescence of Notum: -413.402
Notum [3]; Temperature 38.5
  Thermoflour melting curve fluorescence of Notum: -500.183
Notum [3]; Temperature 39.5
  Thermoflour melting curve fluorescence of Notum: -562.853
Notum [3]; Temperature 40.5
  Thermoflour melting curve fluorescence of Notum: -610.744
Notum [3]; Temperature 41.5
  Thermoflour melting curve fluorescence of Notum: -645.08
Notum [3]; Temperature 42.5
  Thermoflour melting curve fluorescence of Notum: -650.416
Notum [3]; Temperature 43.5
  Thermoflour melting curve fluorescence of Notum: -632.566
Notum [3]; Temperature 44.5
  Thermoflour melting curve fluorescence of Notum: -596.655
Notum [3]; Temperature 45.5
  Thermoflour melting curve fluorescence of Notum: -543.168
Notum [3]; Temperature 46.5
  Thermoflour melting curve fluorescence of Notum: -459.896
Notum [3]; Temperature 47.5
  Thermoflour melting curve fluorescence of Notum: -343.992
Notum [3]; Temperature 48.5
  Thermoflour melting curve fluorescence of Notum: -208.285
Notum [3]; Temperature 49.5
  Thermoflour melting curve fluorescence of Notum: -58.8655
Notum [3]; Temperature 50.5
  Thermoflour melting curve fluorescence of Notum: 106.458
Notum [3]; Temperature 51.5
  Thermoflour melting curve fluorescence of Notum: 280.009
Notum [3]; Temperature 52.5
  Thermoflour melting curve fluorescence of Notum: 465.116
Notum [3]; Temperature 53.5
  Thermoflour melting curve fluorescence of Notum: 688.929
Notum [3]; Temperature 54.5
  Thermoflour melting curve fluorescence of Notum: 944.753
Notum [3]; Temperature 55.5
  Thermoflour melting curve fluorescence of Notum: 1249.14
Notum [3]; Temperature 56.5
  Thermoflour melting curve fluorescence of Notum: 1627.12
Notum [3]; Temperature 57.5
  Thermoflour melting curve fluorescence of Notum: 2089.03
Notum [3]; Temperature 58.5
  Thermoflour melting curve fluorescence of Notum: 2740.86
Notum [3]; Temperature 59.5
  Thermoflour melting curve fluorescence of Notum: 3654.17
Notum [3]; Temperature 60.5
  Thermoflour melting curve fluorescence of Notum: 4930.23
Notum [3]; Temperature 61.5
  Thermoflour melting curve fluorescence of Notum: 6643.29
Notum [3]; Temperature 62.5
  Thermoflour melting curve fluorescence of Notum: 8772.9
Notum [3]; Temperature 63.5
  Thermoflour melting curve fluorescence of Notum: 11088.9
Notum [3]; Temperature 64.5
  Thermoflour melting curve fluorescence of Notum: 13331.1
Notum [3]; Temperature 65.5
  Thermoflour melting curve fluorescence of Notum: 15330
Notum [3]; Temperature 66.5
  Thermoflour melting curve fluorescence of Notum: 16941.4
Notum [3]; Temperature 67.5
  Thermoflour melting curve fluorescence of Notum: 18219.9
Notum [3]; Temperature 68.5
  Thermoflour melting curve fluorescence of Notum: 19263.9
Notum [3]; Temperature 69.5
  Thermoflour melting curve fluorescence of Notum: 20098.6
Notum [3]; Temperature 70.5
  Thermoflour melting curve fluorescence of Notum: 20739.3
Notum [3]; Temperature 71.5
  Thermoflour melting curve fluorescence of Notum: 21242.8
Notum [3]; Temperature 72.5
  Thermoflour melting curve fluorescence of Notum: 21635.7
Notum [3]; Temperature 73.5
  Thermoflour melting curve fluorescence of Notum: 21967.5
Notum [3]; Temperature 74.5
  Thermoflour melting curve fluorescence of Notum: 22276.2
Notum [3]; Temperature 75.5
  Thermoflour melting curve fluorescence of Notum: 22539.4
Notum [3]; Temperature 76.5
  Thermoflour melting curve fluorescence of Notum: 22758.8
Notum [3]; Temperature 77.5
  Thermoflour melting curve fluorescence of Notum: 22973.7
Notum [3]; Temperature 78.5
  Thermoflour melting curve fluorescence of Notum: 23167.2
Notum [3]; Temperature 79.5
  Thermoflour melting curve fluorescence of Notum: 23367.9
Notum [3]; Temperature 80.5
  Thermoflour melting curve fluorescence of Notum: 23544.1
Notum [3]; Temperature 81.5
  Thermoflour melting curve fluorescence of Notum: 23667.9
Notum [3]; Temperature 82.5
  Thermoflour melting curve fluorescence of Notum: 23791
Notum [3]; Temperature 83.5
  Thermoflour melting curve fluorescence of Notum: 23926.1
Notum [3]; Temperature 84.5
  Thermoflour melting curve fluorescence of Notum: 24091.4
Notum [3]; Temperature 85.5
  Thermoflour melting curve fluorescence of Notum: 24243.5
Notum [3]; Temperature 86.5
  Thermoflour melting curve fluorescence of Notum: 24338.2
Notum [3]; Temperature 87.5
  Thermoflour melting curve fluorescence of Notum: 24414.9
Notum [3]; Temperature 88.5
  Thermoflour melting curve fluorescence of Notum: 24481.1
Notum [3]; Temperature 89.5
  Thermoflour melting curve fluorescence of Notum: 24523
Notum [3]; Temperature 90.5
  Thermoflour melting curve fluorescence of Notum: 24559.4
Notum [3]; Temperature 91.5
  Thermoflour melting curve fluorescence of Notum: 24580.6
Notum [3]; Temperature 92.5
  Thermoflour melting curve fluorescence of Notum: 24587.9
Notum [3]; Temperature 93.5
  Thermoflour melting curve fluorescence of Notum: 24608.3
Notum [3]; Temperature 94.5
  Thermoflour melting curve fluorescence of Notum: 24615
Notum [3]; Temperature 95.5
  Thermoflour melting curve fluorescence of Notum: 24596.6
Notum [3]; Temperature 96.5
  Thermoflour melting curve fluorescence of Notum: 24576.1
Notum [3]; Temperature 97.5
  Thermoflour melting curve fluorescence of Notum: 24555
Notum [3]
  Effect on Tm of Notum: very weak binding to Notum
Notum [3]; versus Notum without compounds
  ∆Tm of Notum: about 1 °C
Notum [3]; Notum without compounds Tm 63.6 °C
  Melting temperature (Tm) of Notum: 64.5 °C
